# Assay results: US20240174618A1, “SUBSTITUTED (2-HETEROARYLOXYPHENYL)SULFONATES, SALTS THEREOF AND THEIR USE AS HERBICIDAL AGENTS” (Bayer Aktiengesellschaft, priority 2021, published 2024)
# How the values were obtained:
# Format in all cases: in vivo
# Kochia scoparia (KCHSC) = experiment: B. Herbicidal post-emergence efficacy, KCHSC; conditions: for Post-emergence efficacy against KCHSC in %: rated visually after about 3 weeks; for Post-emergence efficacy against KCHSC: 1280 g/ha
# Outline: (§1)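 Weeds grown in sandy loam in greenhouse and sprayed at the one-leaf stage, 2–3 weeks after sowing, with WP or EC formulations plus 0.5% additive at 600 L/ha water. Injury rated visually versus untreated controls after about 3 weeks (100% = dead, 0% = like control); rates up to 1280 g/ha.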
# [1] = tested on: Alopecurus myosuroides (ALOMY); experiment: C. Herbicidal pre-emergence efficacy, ALOMY; conditions: scored after about 3 weeks
# Outline: (§2)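 Pre-emergence test: formulated compounds sprayed as aqueous suspension or emulsion with 0.5% additive at 600 l/ha onto soil covering sown seeds, at rates corresponding to 320 g/ha or less. After about 3 weeks in greenhouse, efficacy scored visually as percent versus untreated controls (100% = plants dead).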
# Lolium rigidum (LOLRI) = experiment: C. Herbicidal pre-emergence efficacy, LOLRI; conditions: scored after about 3 weeks
# Outline: as §2
# Setaria viridis (SETVI) = experiment: C. Herbicidal pre-emergence efficacy, SETVI; conditions: scored after about 3 weeks
# Outline: as §2
# Viola tricolor (VIOTR) [2] = experiment: C. Herbicidal pre-emergence efficacy, VIOTR
# Outline: as §2
# [3] = tested on: Polygonum convolvulus (POLCO); experiment: E. Herbicidal post-emergence efficacy, POLCO
# Outline: (§3)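 Greenhouse weeds were treated post-emergence at the one-leaf stage, 2-3 weeks after sowing in sandy loam, with WP or EC formulations sprayed as aqueous suspension/emulsion plus 0.5% additive at 600 l/ha, at 320 g/ha or less. Efficacy was rated visually after about 3 weeks versus untreated controls (100% = dead, 0% = like control).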
# Viola tricolor (VIOTR) [4] = experiment: E. Herbicidal post-emergence efficacy, VIOTR
# Outline: as §3
# [5] = tested on: Triticum aestivum (TRZAS); experiment: F. Post-emergence effect on useful plants, TRZAS; conditions: useful plant
# Outline: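 Crop plants grown in sandy loam in the greenhouse were sprayed at the one-leaf stage, 2-3 weeks after sowing, with WP or EC formulations plus 0.5% additive at 600 l/ha water. Damage was scored visually after about 3 weeks against untreated controls (0% = like control, 100% = dead).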
# Poa annua (POAAN) = experiment: B. Herbicidal post-emergence efficacy, POAAN
# Outline: as §1
Post-emergence efficacy against TRZAS in % ([5]; application rate 80 g/ha),Post-emergence efficacy against TRZAS in % ([5]; application rate 320 g/ha),Structure (SMILES),Post-emergence efficacy against KCHSC in % (Kochia scoparia (KCHSC); 320 g/ha),Post-emergence efficacy against KCHSC (Kochia scoparia (KCHSC)),Pre-emergence efficacy against ALOMY ([1]; 320 g/ha),Pre-emergence efficacy against LOLRI (Lolium rigidum (LOLRI); 320 g/ha),Pre-emergence efficacy against SETVI (Setaria viridis (SETVI); 80 g/ha),Pre-emergence efficacy against SETVI (Setaria viridis (SETVI); 320 g/ha),Pre-emergence efficacy against VIOTR in % (Viola tricolor (VIOTR) [2]; application rate 80 g/ha),Pre-emergence efficacy against VIOTR in % (Viola tricolor (VIOTR) [2]; application rate 320 g/ha),Post-emergence efficacy against POLCO in % ([3]; application rate 320 g/ha),Post-emergence efficacy against VIOTR in % (Viola tricolor (VIOTR) [4]; application rate 80 g/ha),Post-emergence efficacy against VIOTR in % (Viola tricolor (VIOTR) [4]; application rate 320 g/ha),Post-emergence efficacy against KCHSC in % (Kochia scoparia (KCHSC); 80 g/ha),Post-emergence efficacy against POAAN (Poa annua (POAAN); 320 g/ha),Post-emergence efficacy against POAAN (Poa annua (POAAN); 1280 g/ha),Post-emergence efficacy against POLCO in % ([3]; application rate 80 g/ha),Post-emergence efficacy against POAAN (Poa annua (POAAN); 80 g/ha),Pre-emergence efficacy against ALOMY ([1]; 80 g/ha),Pre-emergence efficacy against LOLRI (Lolium rigidum (LOLRI); 80 g/ha)
0%,0%,Cc1cccc(Oc2ncc(F)cn2)c1OS(=O)(=O)CCC(F)(F)F [Example I-45],90%,100%,100%,90%,100%,100%,100%,100%,100%,90%,100%,–,–,–,–,–,–,–
0%,10%,C=CCCS(=O)(=O)Oc1c(F)cccc1Oc1ncc(Cl)cn1 [Example I-50],–,90%,90%,100%,100%,100%,–,90%,100%,90%,100%,–,90%,90%,–,90%,–,–
10%,20%,O=S(=O)(CCC(F)(F)F)Oc1c(Cl)cccc1Oc1ncc(Cl)cn1 [Example I-38],90%,90%,100%,100%,100%,100%,100%,100%,100%,100%,100%,–,–,90%,100%,–,–,–
0%,–,O=S(=O)(CCC(F)(F)F)Oc1c(F)cccc1Oc1ncc(F)cn1 [Example I-47],100%,100%,100%,100%,100%,100%,100%,100%,100%,100%,100%,100%,–,–,100%,–,100%,90%
0%,0%,COCCS(=O)(=O)Oc1c(F)cccc1Oc1ncc(Cl)cn1 [Example I-52],–,–,100%,90%,–,100%,100%,100%,80%,–,80%,–,90%,90%,–,–,–,–

# The remaining lines, values behind:
Structure (SMILES),Post-emergence efficacy against TRZAS in % ([5]; application rate 80 g/ha),Post-emergence efficacy against TRZAS in % ([5]; application rate 320 g/ha),Post-emergence efficacy against KCHSC in % (Kochia scoparia (KCHSC); 320 g/ha),Post-emergence efficacy against KCHSC (Kochia scoparia (KCHSC)),Pre-emergence efficacy against ALOMY ([1]; 320 g/ha),Pre-emergence efficacy against LOLRI (Lolium rigidum (LOLRI); 320 g/ha),Pre-emergence efficacy against SETVI (Setaria viridis (SETVI); 80 g/ha),Pre-emergence efficacy against SETVI (Setaria viridis (SETVI); 320 g/ha),Pre-emergence efficacy against VIOTR in % (Viola tricolor (VIOTR) [2]; application rate 80 g/ha),Pre-emergence efficacy against VIOTR in % (Viola tricolor (VIOTR) [2]; application rate 320 g/ha),Post-emergence efficacy against POLCO in % ([3]; application rate 320 g/ha),Post-emergence efficacy against VIOTR in % (Viola tricolor (VIOTR) [4]; application rate 80 g/ha),Post-emergence efficacy against VIOTR in % (Viola tricolor (VIOTR) [4]; application rate 320 g/ha),Post-emergence efficacy against KCHSC in % (Kochia scoparia (KCHSC); 80 g/ha),Post-emergence efficacy against POAAN (Poa annua (POAAN); 320 g/ha),Post-emergence efficacy against POAAN (Poa annua (POAAN); 1280 g/ha),Post-emergence efficacy against POLCO in % ([3]; application rate 80 g/ha),Post-emergence efficacy against POAAN (Poa annua (POAAN); 80 g/ha),Pre-emergence efficacy against ALOMY ([1]; 80 g/ha),Pre-emergence efficacy against LOLRI (Lolium rigidum (LOLRI); 80 g/ha)
O=S(=O)(CCCC(F)(F)F)Oc1c(F)cccc1Oc1ncc(Br)cn1 [Example I-41],0%,–,90%,90%,100%,100%,100%,100%,100%,100%,100%,100%,100%,90%,90%,90%,100%,–,–,–
O=S(=O)(CC1CC1)Oc1ccccc1Oc1ncc(Cl)cn1 [Example I-23],0%,–,100%,100%,100%,100%,100%,100%,100%,100%,100%,100%,100%,100%,90%,100%,100%,90%,80%,–
O=S(=O)(CCCC(F)(F)F)Oc1c(F)cccc1Oc1ncc(Cl)cn1 [Example I-49],20%,–,90%,100%,100%,90%,100%,100%,100%,100%,100%,100%,100%,90%,–,90%,100%,–,100%,80%
O=S(=O)(CCCCl)Oc1ccccc1Oc1ncc(F)cn1 [Example I-5],20%,–,100%,100%,100%,80%,90%,100%,100%,100%,100%,80%,90%,100%,90%,100%,90%,–,90%,–
Cc1cccc(Oc2ncc(F)cn2)c1OS(=O)(=O)CCCC(F)(F)F [Example I-46],0%,10%,–,100%,100%,100%,100%,100%,100%,100%,100%,90%,100%,–,–,–,–,–,–,–
